# Data reported in US11932632B1, “N'-(2-(5-phenyl-1,3,4-oxadiazol-2-ylthio)acetoxy)benzo[d][1,3]dioxole-5 carboximidamide as an antimicrobial compound” (KING FAISAL UNIVERSITY, priority 2023, dated 2024).
# Key:
# Format in all cases: cell-based
# Bacillus Cereus = experiment: Agar plate disc-diffusion, antibacterial activity by inhibition zone; conditions: nutrient agar, 37° C., 48 h, DMSO zone subtracted
# Experimental: (§1) The agar plate disc-diffusion method was applied. […] The discs were then placed onto the surface of agar plates (nutrient agar for bacteria and Sabouraud's dextrose agar for fungi) seeded with the test organism. Each plate contained 15 mL of the agar medium, previously seeded with 0.2 mL of the broth culture of each organism pregrown for 18 hours. The plates were incubated at 37° C. for 48 h, and 72 h for fungi. The inhibition zones were measured in mm. Discs impregnated with DMSO were used as a control, and its inhibition zone was subtracted from the tested compound actual inhibition zone.
# (§2) The results of the antimicrobial testing can be observed in Tables 1 and 2, below, using ciprofloxacin as a reference.
# Escherichia coli = experiment: as above; conditions: nutrient agar, 37° C., 48 h, DMSO zone subtracted
# Experimental: as §1, §2
# Pseudomonas aeruginosa = experiment: as above; conditions: nutrient agar, 37° C., 48 h, DMSO zone subtracted
# Experimental: as §1, §2
# Staphylococcus aureus = experiment: as above; conditions: nutrient agar, 37° C., 48 h, DMSO zone subtracted
# Experimental: as §1, §2
# Aspergillus flavus = experiment: Agar plate disc-diffusion, antifungal activity by inhibition zone; conditions: Sabouraud's dextrose agar, 37° C., 72 h, DMSO zone subtracted
# Experimental: as §1, §2
# [1] = test system: Chrysosporium keratinophilum; experiment: as above; conditions: Sabouraud's dextrose agar, 37° C., 72 h, DMSO zone subtracted
# Experimental: as §1, §2
# [2] = A = concentration of comp. = 10,000 μL
# [3] = B = concentration of comp. = 30.000 μL
# [4] = C = concentration of comp. = 50,000 μL
smiles,measurement,setting,value
"N/C(=N\OC(=O)CSc1nnc(-c2ccccc2)o1)c1ccc2c(c1)OCO2 [Compound 3, N′-(2-(5-phenyl-1,3,4-oxadiazol-2-ylthio)acetoxy)benzo[d][1,3]dioxole-5-carboximidamide]","inhibition zone, Bacillus Cereus, A",Bacillus Cereus; [2],25 mm
same,"inhibition zone, Bacillus Cereus, B",Bacillus Cereus; [3],29 mm
same,"inhibition zone, Bacillus Cereus, C",Bacillus Cereus; [4],39 mm
same,"inhibition zone, Escherichia coli, A",Escherichia coli; [2],29 mm
same,"inhibition zone, Escherichia coli, B",Escherichia coli; [3],33 mm
same,"inhibition zone, Escherichia coli, C",Escherichia coli; [4],49 mm
same,"inhibition zone, Pseudomonas aeruginosa, A",Pseudomonas aeruginosa; [2],24 mm
same,"inhibition zone, Pseudomonas aeruginosa, B",Pseudomonas aeruginosa; [3],27 mm
same,"inhibition zone, Pseudomonas aeruginosa, C",Pseudomonas aeruginosa; [4],39 mm
same,"inhibition zone, Staphylococcus aureus, A",Staphylococcus aureus; [2],18 mm
same,"inhibition zone, Staphylococcus aureus, B",Staphylococcus aureus; [3],21 mm
same,"inhibition zone, Staphylococcus aureus, C",Staphylococcus aureus; [4],37 mm
same,"inhibition zone, Aspergillus flavus, A",Aspergillus flavus; [2],21 mm
same,"inhibition zone, Aspergillus flavus, B",Aspergillus flavus; [3],25 mm
same,"inhibition zone, Aspergillus flavus, C",Aspergillus flavus; [4],36 mm
same,"inhibition zone, Chrysosporium keratinophilum, A",[1]; [2],25 mm
same,"inhibition zone, Chrysosporium keratinophilum, B",[1]; [3],27 mm
same,"inhibition zone, Chrysosporium keratinophilum, C",[1]; [4],42 mm
